Data published in ChEMBL document CHEMBL1201862, “PubChem BioAssay data set” (2004).
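Results reflect a 48-hour exposure of cells in 96-well plates to compound at five concentrations. The concentration for 50% growth inhibition is given as GI50.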 Calls of active or inactive are those of the source. Rule as the data show it: active = GI50 up to about 1.1 µM and inactive = higher.

How the values were obtained:
Assay in all cases: NCI-60 cell line screen, 48 h
SN12C = test system: SN12C
ACHN = test system: ACHN
HCC 2998 = test system: HCC 2998
NCI-H460 = test system: NCI-H460
MOLT-4 = test system: MOLT-4
COLO 205 = test system: COLO 205
HCT-116 = test system: HCT-116
M14 = test system: M14
SK-MEL-2 = test system: SK-MEL-2
IGROV-1 = test system: IGROV-1
SK-MEL-5 = test system: SK-MEL-5
HOP-62 = test system: HOP-62
SW-620 = test system: SW-620
UO-31 = test system: UO-31
UACC-62 = test system: UACC-62
OVCAR-8 = test system: OVCAR-8
RPMI-8226 = test system: RPMI-8226

| SMILES | GI50 (SN12C) | GI50 (ACHN) | GI50 (HCC 2998) | GI50 (NCI-H460) | GI50 (MOLT-4) | GI50 (COLO 205) | GI50 (HCT-116) | GI50 (M14) | GI50 (SK-MEL-2) | GI50 (IGROV-1) | GI50 (SK-MEL-5) | GI50 (HOP-62) | GI50 (SW-620) | GI50 (UO-31) | GI50 (UACC-62) | GI50 (OVCAR-8) | GI50 (RPMI-8226) |
| --- | --- | --- | --- | --- | --- | --- | --- | --- | --- | --- | --- | --- | --- | --- | --- | --- | --- |
| CCOC(=O)C1=C(Nc2ccc(Br)cc2)OCC1=O | > 100 µM (inactive) | > 100 µM (inactive) | > 100 µM (inactive) | > 100 µM (inactive) | > 100 µM (inactive) | > 100 µM (inactive) | > 100 µM (inactive) | > 100 µM (inactive) | > 100 µM (inactive) | > 100 µM (inactive) | > 100 µM (inactive) | > 100 µM (inactive) | > 100 µM (inactive) | > 100 µM (inactive) | > 100 µM (inactive) | > 100 µM (inactive) |  |
| NC1=NN(c2ccccc2)C(=O)C1C(=O)C(=O)Nc1nccs1 (stereo unspecified) | > 100 µM (inactive) | > 100 µM (inactive) | > 100 µM (inactive) | > 100 µM (inactive) | > 100 µM (inactive) | > 100 µM (inactive) | > 100 µM (inactive) | > 100 µM (inactive) | > 100 µM (inactive) | > 100 µM (inactive) | > 100 µM (inactive) | > 100 µM (inactive) | > 100 µM (inactive) | > 100 µM (inactive) | > 100 µM (inactive) | > 100 µM (inactive) | > 100 µM (inactive) |
| O=C(C(=O)N1CC2C=CC1CC2)c1c[nH]c2ccccc12 (stereo unspecified) | > 100 µM (inactive) | > 100 µM (inactive) | > 100 µM (inactive) | > 100 µM (inactive) | > 100 µM (inactive) | > 100 µM (inactive) | > 100 µM (inactive) | > 100 µM (inactive) | > 100 µM (inactive) | > 100 µM (inactive) | > 100 µM (inactive) | > 100 µM (inactive) | > 100 µM (inactive) | > 100 µM (inactive) | > 100 µM (inactive) | > 100 µM (inactive) | > 100 µM (inactive) |
| CC(=O)NC(CCCCNC(=O)NCCCl)C(=O)NCc1ccccc1 (stereo unspecified) | > 100 µM (inactive) | > 100 µM (inactive) | > 100 µM (inactive) | > 100 µM (inactive) | > 100 µM (inactive) | > 100 µM (inactive) | > 100 µM (inactive) | > 100 µM (inactive) | > 100 µM (inactive) |  | > 100 µM (inactive) | > 100 µM (inactive) | > 100 µM (inactive) | > 100 µM (inactive) | > 100 µM (inactive) | > 100 µM (inactive) | > 100 µM (inactive) |
| O=C1O/C(=C(\Br)c2cccc3ccccc23)c2ccccc21 | 21.3 µM (inactive) | 34.2 µM (inactive) | > 65.3 µM (inactive) | > 53.6 µM (inactive) | 21.5 µM (inactive) | 28.3 µM (inactive) | 31.4 µM (inactive) | > 44.2 µM (inactive) | > 42.8 µM (inactive) | 27.9 µM (inactive) | 22.8 µM (inactive) | > 100 µM (inactive) | 27 µM (inactive) | > 41.3 µM (inactive) | 35.2 µM (inactive) | > 43.7 µM (inactive) | 22.2 µM (inactive) |
| N/N=C1\C(=O)N(c2ccc(Cl)cc2Cl)C(=O)C(=O)C1c1nc2ccccc2o1 (stereo unspecified) | > 100 µM (inactive) | > 100 µM (inactive) | > 100 µM (inactive) | > 100 µM (inactive) | > 100 µM (inactive) | > 100 µM (inactive) | > 100 µM (inactive) | > 100 µM (inactive) | 95.7 µM (inactive) | > 100 µM (inactive) | > 100 µM (inactive) | > 100 µM (inactive) | > 100 µM (inactive) | 48.3 µM (inactive) | 11.4 µM (inactive) | > 100 µM (inactive) | > 100 µM (inactive) |
| Cc1ccc2nc(NC(=O)C(=O)C(C(=O)c3ccc4ccccc4c3)C3OC(=O)c4ccccc43)sc2c1 (stereo unspecified) | 13.5 µM (inactive) | 16.5 µM (inactive) | 11.3 µM (inactive) | 4.43 µM (inactive) |  | 15.1 µM (inactive) | 5.6 µM (inactive) | 15 µM (inactive) | 14.4 µM (inactive) | 14.9 µM (inactive) | 10.5 µM (inactive) | 11 µM (inactive) | 5.86 µM (inactive) | 14.6 µM (inactive) | 6.98 µM (inactive) | 7.74 µM (inactive) | 9.25 µM (inactive) |
| COc1ccc(-c2cc(=O)c3ccccc3[nH]2)c(OC)c1 | > 100 µM (inactive) | > 100 µM (inactive) | > 10 µM (inactive) | > 100 µM (inactive) | > 100 µM (inactive) | > 100 µM (inactive) | > 100 µM (inactive) | > 100 µM (inactive) |  | > 100 µM (inactive) |  | > 100 µM (inactive) | > 100 µM (inactive) | > 100 µM (inactive) | > 100 µM (inactive) | > 100 µM (inactive) | > 100 µM (inactive) |
| CCC(C)Cn1c(C)nc2c1C(=O)c1ccccc1C2=O (stereo unspecified) | 36.1 µM (inactive) | 36.1 µM (inactive) | 47.4 µM (inactive) | 14.8 µM (inactive) | 2.91 µM (inactive) | 19.8 µM (inactive) | > 10 µM (inactive) | 42.3 µM (inactive) | 33.1 µM (inactive) | 42.5 µM (inactive) | 15 µM (inactive) | 23.8 µM (inactive) | 38.7 µM (inactive) | 24.5 µM (inactive) | 9.98 µM (inactive) | 32.9 µM (inactive) |  |
| CCCCCCCCCCCCOP(N)(=O)OCCCCCCCCCCCC | > 100 µM (inactive) | > 100 µM (inactive) | > 100 µM (inactive) | > 100 µM (inactive) | > 100 µM (inactive) | > 100 µM (inactive) | > 100 µM (inactive) | > 100 µM (inactive) |  | > 100 µM (inactive) |  | > 100 µM (inactive) | > 100 µM (inactive) | > 100 µM (inactive) | > 100 µM (inactive) | > 100 µM (inactive) | > 100 µM (inactive) |
| CCOP(=O)(C/C(O)=C1\C(=O)C(CCCNC(=O)OC(C)(C)C)N(Cc2ccc(OC)c(OC)c2)C1=O)OCC (stereo unspecified) | > 100 µM (inactive) | > 100 µM (inactive) | > 100 µM (inactive) | > 100 µM (inactive) | > 100 µM (inactive) | > 100 µM (inactive) | > 100 µM (inactive) | > 100 µM (inactive) | > 100 µM (inactive) | > 100 µM (inactive) | > 100 µM (inactive) | > 100 µM (inactive) | > 100 µM (inactive) | > 100 µM (inactive) | > 100 µM (inactive) | > 100 µM (inactive) | > 100 µM (inactive) |
| COC(C)(C)[C@H](O)C(O)CC(C)[C@@H]1CCC23CC12CCC1[C@@]2(C)CCC(OC(C)=O)C(C)(C)C2CC(OC2OC(COC(C)=O)C(O)C(O)C2O)[C@]13C (stereo partly specified) | 2.99 µM (inactive) | 3.76 µM (inactive) | 1.57 µM (inactive) | 2.88 µM (inactive) | 4.19 µM (inactive) | 3.48 µM (inactive) | 2.26 µM (inactive) | 2.77 µM (inactive) | 9.29 µM (inactive) | 2.56 µM (inactive) | 5.48 µM (inactive) | 8.49 µM (inactive) | 5.35 µM (inactive) | 6.95 µM (inactive) | 2.77 µM (inactive) | 4.56 µM (inactive) | 0.264 µM (active) |
